# Results from ChEMBL document CHEMBL5620367, “Discovery of new tetrahydroisoquinolines as potent and selective LSD1 inhibitors for the treatment of MLL-rearranged leukemia” (Eur J Med Chem, 2023).
# Calls of active or inactive are those of the source. No cut-off for these calls is given here.
# Columns and labels:
# MOLM-13 [1] = experiment: Induction of apoptosis in human MOLM-13 cells assessed as early apoptotic cells at 100 uM incubated for 3 days by Annexin V staining based flow cytometry (reference value: 4.94 %); type: functional; conditions: time 3 day
# MOLM-13 [2] = experiment: Induction of apoptosis in human MOLM-13 cells assessed as late apoptotic cells at 100 uM incubated for 3 days by Annexin V staining based flow cytometry (reference value: 3.29 %); type: functional; conditions: time 3 day
# MOLM-13 [3] = experiment: Induction of apoptosis in human MOLM-13 cells assessed as necrotic cells at 100 uM incubated for 3 days by Annexin V staining based flow cytometry (reference value: 1.23 %); type: functional; conditions: time 3 day
# MV4-11 [4] = experiment: Induction of apoptosis in human MV4-11 cells assessed as viable cells at 10 uM incubated for 3 days by Annexin V staining based flow cytometry (reference value: 89.63 %); type: functional; conditions: MV4-11, 72 h, time 3 day, read-out: Activity
# MV4-11 [5] = experiment: Induction of apoptosis in human MV4-11 cells assessed as early apoptotic cells at 10 uM incubated for 3 days by Annexin V staining based flow cytometry (reference value: […] %); type: functional; conditions: time 3 day
# MV4-11 [6] = experiment: Induction of apoptosis in human MV4-11 cells assessed as late apoptotic cells at 10 uM incubated for 3 days by Annexin V staining based flow cytometry (reference value: 7.29 %); type: functional; conditions: time 3 day
# MV4-11 [7] = experiment: Induction of apoptosis in human MV4-11 cells assessed as necrotic cells at 10 uM incubated for 3 days by Annexin V staining based flow cytometry (reference value: 2.45 %); type: functional; conditions: time 3 day
# MV4-11 [8] = experiment: Induction of apoptosis in human MV4-11 cells assessed as viable cells at 30 uM incubated for 3 days by Annexin V staining based flow cytometry (reference value: 89.63 %); type: functional; conditions: MV4-11, 72 h, time 3 day, read-out: Activity
# MV4-11 [9] = experiment: Induction of apoptosis in human MV4-11 cells assessed as early apoptotic cells at 30 uM incubated for 3 days by Annexin V staining based flow cytometry (reference value: […] %); type: functional; conditions: time 3 day
# MV4-11 [10] = experiment: Induction of apoptosis in human MV4-11 cells assessed as late apoptotic cells at 30 uM incubated for 3 days by Annexin V staining based flow cytometry (reference value: 7.29 %); type: functional; conditions: time 3 day
# MV4-11 [11] = experiment: Induction of apoptosis in human MV4-11 cells assessed as necrotic cells at 30 uM incubated for 3 days by Annexin V staining based flow cytometry (reference value: 2.45 %); type: functional; conditions: time 3 day
# MV4-11 [12] = experiment: Induction of apoptosis in human MV4-11 cells assessed as viable cells at 100 uM incubated for 3 days by Annexin V staining based flow cytometry (reference value: 89.63 %); type: functional; conditions: MV4-11, 72 h, time 3 day, read-out: Activity
# MV4-11 [13] = experiment: Induction of apoptosis in human MV4-11 cells assessed as early apoptotic cells at 100 uM incubated for 3 days by Annexin V staining based flow cytometry (reference value: […] %); type: functional; conditions: time 3 day
# MV4-11 [14] = experiment: Induction of apoptosis in human MV4-11 cells assessed as late apoptotic cells at 100 uM incubated for 3 days by Annexin V staining based flow cytometry (reference value: 7.29 %); type: functional; conditions: time 3 day
# MV4-11 [15] = experiment: Induction of apoptosis in human MV4-11 cells assessed as necrotic cells at 100 uM incubated for 3 days by Annexin V staining based flow cytometry (reference value: 2.45 %); type: functional; conditions: time 3 day
# MOLM-13 [16] = experiment: Induction of apoptosis in human MOLM-13 cells assessed as increase in p53 level upto 100 uM incubated for 3 days by Western blot analysis; type: functional, cell-based; conditions: time 3.0 day
# MV4-11 [17] = experiment: Induction of apoptosis in human MV4-11 cells assessed as increase in p53 level upto 100 uM incubated for 3 days by Western blot analysis; type: functional, cell-based; conditions: time 3.0 day
# MV4-11 [18] = experiment: Antitumor activity against human MV4-11 cells xenografted in NOD-SCID mouse assessed as increase in RBC at 50 to 78.7 mg/kg, sc measured after 33 days; type: functional, organism-based; conditions: dose 50-78.7 mg/kg, time 33.0 day
# MV4-11 [19] = experiment: Antitumor activity against human MV4-11 cells xenografted in NOD-SCID mouse assessed as increase in hemoglobin level at 50 to 78.7 mg/kg, sc measured after 33 days; type: functional, organism-based; conditions: dose 50-78.7 mg/kg, time 33.0 day
# MV4-11 [20] = experiment: Antitumor activity against human MV4-11 cells xenografted in NOD-SCID mouse assessed as decrease in leukemic cells in spleen at 50 mg/kg, sc measured after 33 days relative to control; type: functional; set-up: scale not given: the % may be the effect or the level left; conditions: time 33 day
# MV4-11 [21] = experiment: Antitumor activity against human MV4-11 cells xenografted in NOD-SCID mouse assessed as decrease in leukemic cells in blood at 78.7 mg/kg, sc measured after 33 days relative to control; type: functional; set-up: scale not given: the % may be the effect or the level left; conditions: time 33 day
# MV4-11 [22] = experiment: Antitumor activity against human MV4-11 cells xenografted in NOD-SCID mouse assessed as decrease in leukemic cells in spleen at 78.7 mg/kg, sc measured after 33 days relative to control; type: functional; set-up: scale not given: the % may be the effect or the level left; conditions: time 33 day
# MV4-11 [23] = experiment: Anti-invasive activity against human MV4-11 cells xenografted in NOD-SCID mouse assessed as reduction in tumor formation in ovarian tissue at 50 mg/kg, sc measured after 33 days; type: functional, organism-based; conditions: time 33.0 day
# MV4-11 [24] = experiment: Anti-invasive activity against human MV4-11 cells xenografted in NOD-SCID mouse assessed as reduction in tumor formation in ovarian tissue at 78.7 mg/kg, sc measured after 33 days; type: functional, organism-based; conditions: time 33.0 day
# [25] = Toxicity in NOD-SCID mouse xenografted with human MV4-11 cells assessed as animal survival at 50 to 78.7 mg/kg, sc measured after 33 days; type: organism-based; conditions: in vivo, 792 h, dose 50-78.7 mg/kg, time 33 day
# [26] = Toxicity in NOD-SCID mouse xenografted with human MV4-11 cells assessed as body weight reduction at 50 to 78.7 mg/kg, sc measured after 33 days; type: organism-based; set-up: scale not given: the % may be the effect or the level left; conditions: in vivo, 792 h, dose 50-78.7 mg/kg, time 33 day
# [27] = Toxicity in NOD-SCID mouse xenografted with human MV4-11 cells assessed as hunch-back posture at 50 to 78.7 mg/kg, sc measured after 33 days; type: organism-based; conditions: in vivo, 792 h, dose 50-78.7 mg/kg, time 33 day
# [28] = Toxicity in NOD-SCID mouse xenografted with human MV4-11 cells assessed as change in fur morphology at 50 to 78.7 mg/kg, sc measured after 33 days; type: organism-based; conditions: in vivo, 792 h, dose 50-78.7 mg/kg, time 33 day
smiles,measurement,setting,value
O=C(O)C(F)(F)F.O=[N+]([O-])c1ccc(C2NCCc3cc(O)c(O)cc32)cc1 (stereo not drawn),Activity,MOLM-13 [1],9.46%
same,Activity,MOLM-13 [2],18.07%
same,Activity,MOLM-13 [3],16.41%
same,viability at 10 µM,MV4-11 [4],66.2%
same,Activity,MV4-11 [5],7.06%
same,Activity,MV4-11 [6],22.73%
same,Activity,MV4-11 [7],4.05%
same,viability at 30 µM,MV4-11 [8],57.8%
same,Activity,MV4-11 [9],7.75%
same,Activity,MV4-11 [10],28.14%
same,Activity,MV4-11 [11],6.36%
same,viability at 100 µM,MV4-11 [12],49.9%
same,Activity,MV4-11 [13],9.09%
same,Activity,MV4-11 [14],32.33%
same,Activity,MV4-11 [15],15.9%
same,Activity,MOLM-13 [16],Active
same,Activity,MV4-11 [17],Active
same,Activity,MV4-11 [18],Active
same,Activity,MV4-11 [19],Active
same,Activity,MV4-11 [20],32%
same,Activity,MV4-11 [21],81%
same,Activity,MV4-11 [22],87%
same,Activity,MV4-11 [23],inactive
same,Activity,MV4-11 [24],Active
same,Activity,[25],Non-Toxic
same,Activity,[26],> 20%
same,Activity,[27],Toxic
same,Activity,[28],Toxic
